According to patent US8426588B2, “Phenylalanine derivatives” (Ajinomoto Co, Inc., priority 2000, dated 2013):

Experiments:
integrin α4β1 = biological target: T1, integrin α4β1 (Homo sapiens, UniProt P05556+P13612); assay: VCAM antagonist activity (VCAM-1/α4β1 binding assay), Jurkat cells binding to VCAM-1; assay type: cell-based; details: Jurkat human T cells binding to recombinant human VCAM-1; read-out: VCAM antagonistic activity (IC50) α4β1
T1 construct: cell strain Jurkat (ATCC TIB-152) of human T cells, known to express integrin α4β1; endogenous in cells; host or cells: Jurkat (ATCC TIB-152)
T1 sequence (P05556 21-798, one chain of several): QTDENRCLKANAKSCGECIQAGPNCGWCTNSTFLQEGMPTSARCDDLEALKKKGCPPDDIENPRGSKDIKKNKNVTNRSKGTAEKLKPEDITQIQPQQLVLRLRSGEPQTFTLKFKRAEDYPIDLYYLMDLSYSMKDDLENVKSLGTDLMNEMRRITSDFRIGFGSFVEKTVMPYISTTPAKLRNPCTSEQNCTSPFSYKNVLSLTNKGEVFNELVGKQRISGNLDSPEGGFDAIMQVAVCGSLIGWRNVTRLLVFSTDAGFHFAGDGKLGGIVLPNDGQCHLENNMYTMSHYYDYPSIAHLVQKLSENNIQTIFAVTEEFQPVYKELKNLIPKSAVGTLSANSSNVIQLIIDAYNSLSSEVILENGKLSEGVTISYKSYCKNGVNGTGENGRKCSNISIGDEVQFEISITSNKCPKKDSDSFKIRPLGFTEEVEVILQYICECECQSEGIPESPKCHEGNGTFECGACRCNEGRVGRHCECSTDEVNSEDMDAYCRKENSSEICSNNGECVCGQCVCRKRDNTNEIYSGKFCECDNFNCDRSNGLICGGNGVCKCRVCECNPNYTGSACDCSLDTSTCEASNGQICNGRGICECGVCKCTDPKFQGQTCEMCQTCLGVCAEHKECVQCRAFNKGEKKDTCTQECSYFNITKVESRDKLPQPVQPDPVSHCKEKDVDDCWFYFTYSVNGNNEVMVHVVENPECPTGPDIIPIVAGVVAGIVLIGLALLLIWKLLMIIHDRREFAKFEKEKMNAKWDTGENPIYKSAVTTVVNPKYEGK
Method: VCAM Antagonist Activity (VCAM-1/α4β1 Binding Assay)
The capacity of a test substance antagonistic to the binding of cell strain Jurkat (ATCC TIB-152) of human T cells, known to express integrin α4β1, to VCAM-1 was determined.
(§1) 100 μl/well of a solution (500 ng/ml) of recombinant human VCAM-1 (R & D systems) solution diluted with buffer A (0.1 M NaHCO3, pH 9.6) was added to a micro titer plate having 96 wells (Nunc Maxisorp). After the incubation at 4° C. overnight, unbound VCAM-1 was removed by washing once with PBS. After completion of the washing, a buffer (buffer B) obtained by diluting Block Ace (Dainippon Pharmaceutical Co., Ltd.) with PBS to ¼ concentration was added in an amount of 150 μl/well. After the incubation at room temperature for 1 hour, buffer B was removed and the plate was washed with PBS once.
Jurkat cells were washed with Dulbecco modified Eagle medium (SIGMA, hereinafter referred to as “DMEM”) twice and then incubated in DMEM containing 10 μg/ml of Calcein-AM (Wako Pure Chemical Industries, Ltd.) at 37° C. in dark place for 30 minutes to label with fluorescence. The cells were again suspended in a binding buffer (20 mM HEPES, DMEM containing 0.1% BSA).
(§2) 50 μl of a test substance of various concentrations obtained by the dilution with the binding buffer was added to the plate. Immediately thereafter, 50 μl (final volume: 100 μl/well) of the fluorescent Jurkat cells (4×10^6 cells/ml) were added thereto, and they were incubated in dark place at room temperature for 30 minutes. After the shaking on a plate shaker (IKA MTS-4) at 800 rpm for 30 seconds, the solution was immediately removed to remove the unbound cells. The fluorescence quantity of the bound cells remaining in the wells was determined with a fluorescent plate reader (Wallac 1920 ARVO multi-label counter) (filter excitation wave length: 485 nm, emission wave length: 535 nm). The fluorescent strength thus obtained is proportional to the number of Jurkat cells bound to VCAM-1 and remaining on the plate. The binding rate of each test material in various concentrations was determined while the fluorescent strength of the test material-free well was determined to be 100%.

integrin α4β7 = biological target: T2, integrin α4β7 (Homo sapiens, UniProt P13612+P26010); assay: VCAM antagonistic activity (VCAM-1/α4β7 binding assay), RPMI-8866 cells binding to VCAM-1; assay type: cell-based; details: RPMI-8866 human B lymphoma cells binding to recombinant human VCAM-1; binding buffer with 4 mM MnCl2
T2 construct: lymphoma cell strain RPMI-8866 of human B cells, known to express integrin α4β7; endogenous in cells; host or cells: RPMI-8866
T2 sequence (P13612 34-1032): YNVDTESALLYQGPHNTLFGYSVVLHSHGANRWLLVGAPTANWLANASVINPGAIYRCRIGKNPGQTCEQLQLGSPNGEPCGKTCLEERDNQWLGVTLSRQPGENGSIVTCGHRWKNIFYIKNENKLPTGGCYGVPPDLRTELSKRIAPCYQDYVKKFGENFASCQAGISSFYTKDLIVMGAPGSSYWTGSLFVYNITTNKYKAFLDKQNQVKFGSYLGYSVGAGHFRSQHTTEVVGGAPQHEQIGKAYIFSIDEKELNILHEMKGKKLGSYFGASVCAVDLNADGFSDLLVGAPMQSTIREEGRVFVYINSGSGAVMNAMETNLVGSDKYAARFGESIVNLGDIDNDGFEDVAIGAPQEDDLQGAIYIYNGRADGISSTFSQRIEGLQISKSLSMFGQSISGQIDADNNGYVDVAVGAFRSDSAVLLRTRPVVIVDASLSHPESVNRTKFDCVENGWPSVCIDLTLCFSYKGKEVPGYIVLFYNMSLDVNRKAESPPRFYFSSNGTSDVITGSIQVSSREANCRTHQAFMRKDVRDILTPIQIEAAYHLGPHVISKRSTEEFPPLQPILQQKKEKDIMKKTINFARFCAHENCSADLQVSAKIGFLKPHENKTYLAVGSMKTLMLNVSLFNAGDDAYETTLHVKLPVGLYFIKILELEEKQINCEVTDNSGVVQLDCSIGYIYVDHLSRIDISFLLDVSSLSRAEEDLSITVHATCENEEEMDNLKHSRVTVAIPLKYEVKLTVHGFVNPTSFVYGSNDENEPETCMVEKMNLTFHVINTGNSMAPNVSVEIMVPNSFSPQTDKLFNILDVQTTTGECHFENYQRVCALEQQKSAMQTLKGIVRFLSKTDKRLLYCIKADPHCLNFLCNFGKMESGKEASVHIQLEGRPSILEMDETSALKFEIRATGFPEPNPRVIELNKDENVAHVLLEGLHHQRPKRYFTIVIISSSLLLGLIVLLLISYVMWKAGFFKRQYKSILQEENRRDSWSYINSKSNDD
T2 sequence (P26010 20-798): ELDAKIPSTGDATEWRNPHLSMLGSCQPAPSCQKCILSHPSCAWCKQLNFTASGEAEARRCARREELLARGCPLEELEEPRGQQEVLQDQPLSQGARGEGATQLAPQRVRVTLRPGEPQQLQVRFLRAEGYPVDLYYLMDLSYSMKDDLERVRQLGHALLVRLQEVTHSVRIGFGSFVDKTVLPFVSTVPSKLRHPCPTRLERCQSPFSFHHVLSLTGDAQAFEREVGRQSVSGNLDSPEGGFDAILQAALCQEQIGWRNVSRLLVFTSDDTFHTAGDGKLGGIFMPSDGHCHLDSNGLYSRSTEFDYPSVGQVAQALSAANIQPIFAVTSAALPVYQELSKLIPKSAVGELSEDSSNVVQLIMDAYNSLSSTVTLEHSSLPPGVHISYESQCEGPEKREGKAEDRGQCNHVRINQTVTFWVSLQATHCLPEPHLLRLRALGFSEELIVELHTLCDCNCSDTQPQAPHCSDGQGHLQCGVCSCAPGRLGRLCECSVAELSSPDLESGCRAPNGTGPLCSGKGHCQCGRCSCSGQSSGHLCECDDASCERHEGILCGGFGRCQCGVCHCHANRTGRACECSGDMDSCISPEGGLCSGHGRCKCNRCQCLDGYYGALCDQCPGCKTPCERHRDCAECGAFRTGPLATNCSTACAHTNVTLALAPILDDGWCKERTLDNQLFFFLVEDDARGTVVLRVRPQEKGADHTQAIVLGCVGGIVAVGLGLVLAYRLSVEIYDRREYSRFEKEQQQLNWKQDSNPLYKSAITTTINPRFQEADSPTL
Method: VCAM Antagonistic Activity (VCAM-1/α4β7 Binding Assay)
The capacity of a test substance antagonistic to the binding of lymphoma cell strain RPMI-8866 of human B cells, known to express integrin α4β7, to VCAM-1 was determined.
as §1
RPMI-8866 cells were washed with DMEM twice and incubated in Dulbecco modified Eagle medium containing 10 μg/ml of Calcein-AM (Wako Pure Chemical Industries, Ltd.) (SIGMA, hereinafter referred to as “DMEM”) in dark place at 37° C. for 30 minutes to label with fluorescence. The cells were again suspended in a binding buffer (20 mM HEPES, DMEM containing 0.1% BSA) containing 4 mM of MnCl2.
as §2, with “RPMI-8866” for “Jurkat”, “1420” for “1920”

| SMILES | IC50 (integrin α4β1) [nM] | IC50 (integrin α4β7) [nM] |
| --- | --- | --- |
| CCN(CC)c1ccc2c(c1)c(=O)n(-c1ccc(C[C@H](NC(=O)c3c(Cl)cccc3Cl)C(=O)O)cc1)c(=O)n2C [Example 111] | 88 | 11 |
| Cn1c(=O)n(-c2ccc(C[C@H](NC(=O)c3c(Cl)cccc3Cl)C(=O)O)cc2)c(=O)c2cc([N+]3(C)CCCC3)ccc21 [Example 113] | 52 | 1.6 |
| O=C(N[C@@H](Cc1ccc(-n2c(=O)oc3c(ccc4ccccc43)c2=O)cc1)C(=O)O)c1c(Cl)cccc1Cl [Example 137] | 2120 | 11.2 |
| Nc1ccc2c(=O)n(-c3ccc(C[C@H](NC(=O)c4c(Cl)cccc4Cl)C(=O)O)cc3)c(=O)oc2c1 [Example 142] | 210 | 9 |
| COc1cccc2c(=O)n(-c3ccc(C[C@H](NC(=O)c4c(Cl)cccc4Cl)C(=O)O)cc3)c(=O)n(C)c12 [Example 180] | 86 | 5.4 |
| Cc1cccc2c1c(=O)n(-c1ccc(C[C@H](NC(=O)c3c(Cl)cccc3Cl)C(=O)O)cc1)c(=O)n2C [Example 181] | 15 | 1 |
| Cn1c(=O)n(-c2ccc(C[C@H](NC(=O)c3c(Cl)cccc3Cl)C(=O)O)cc2)c(=O)c2cc(Cl)ccc21 [Example 183] | 25 | 1.7 |
| Cc1cccc2c(=O)n(-c3ccc(C[C@H](NC(=O)c4c(Cl)cccc4Cl)C(=O)O)cc3)c(=O)n(C)c12 [Example 186] | 59 | 4.3 |
| Cn1c(=O)n(-c2ccc(C[C@H](NC(=O)c3c(Cl)cccc3Cl)C(=O)O)cc2)c(=O)c2c(Cl)cccc21 [Example 187] | 26 | 3.2 |

More lines, in order of falling IC50 (integrin α4β1), values ahead:

| IC50 (integrin α4β1) [nM] | IC50 (integrin α4β7) [nM] | SMILES |
| --- | --- | --- |
| 570 | 12 | CN1CCC(=O)N(c2ccc(C[C@H](NC(=O)c3c(Cl)cccc3Cl)C(=O)O)cc2)C1=O [Example 135] |
| 565 | 3 | O=C(N[C@@H](Cc1ccc(-n2c(=O)oc3ccccc3c2=O)cc1)C(=O)O)c1c(Cl)cccc1Cl [Example 136] |
| 480 | 19 | O=C(N[C@@H](Cc1ccc(-n2c(=O)c3ccccc3n(Cc3ccc(Cl)cc3)c2=O)cc1)C(=O)O)c1c(Cl)cccc1Cl [Example 117] |
| 113 | 6.2 | Cn1c(=O)n(-c2ccc(C[C@H](NC(=O)c3c(Cl)cccc3Cl)C(=O)O)cc2)c(=O)c2cccc(Cl)c21 [Example 182] |
| 107 | 17 | COc1ccc2c(=O)n(-c3ccc(C[C@H](NC(=O)c4c(Cl)cccc4Cl)C(=O)O)cc3)c(=O)oc2c1 [Example 139] |
| 107 | 6.5 | CN1C(=O)N(c2ccc(C[C@H](NC(=O)c3c(Cl)cccc3Cl)C(=O)O)cc2)Cc2ccccc21 [Example 147] |
| 31 | 3.3 | COc1ccc2c(c1)c(=O)n(-c1ccc(C[C@H](NC(=O)c3c(Cl)cccc3Cl)C(=O)O)cc1)c(=O)n2C [Example 184] |
| 18 | 1.1 | Cn1c(=O)n(-c2ccc(C[C@H](NC(=O)c3c(Cl)cccc3Cl)C(=O)O)cc2)c(=O)c2cc(F)ccc21 [Example 189] |
| 17 | 1.1 | Cn1c(=O)n(-c2ccc(C[C@H](NC(=O)c3c(Cl)cccc3Cl)C(=O)O)cc2)c(=O)c2cc(N)ccc21 [Example 107] |
| 12 | 2.7 | Cn1c(=O)n(-c2ccc(C[C@H](NC(=O)c3c(Cl)cccc3Cl)C(=O)O)cc2)c(=O)c2ccc(C(F)(F)F)cc21 [Example 185] |
| 11 | 2.7 | COc1cc2c(=O)n(-c3ccc(C[C@H](NC(=O)c4c(Cl)cccc4Cl)C(=O)O)cc3)c(=O)n(C)c2cc1OC [Example 188] |
